Source: the OPERA property sets (Mansouri et al. 2018)

| logP | SMILES |
| --- | --- |
| 1.3 | O=C(O)CCC1=NS(=O)(=O)c2ccc(C(F)(F)F)cc2N1 |
| 1.79 | O=C(O)CCSC1=NS(=O)(=O)c2cc(Cl)cc(Cl)c2N1 |
| 0.83 | O=C(O)CCCC1=NS(=O)(=O)c2ccc(Cl)cc2N1 |
| 0.96 | COc1ccc2c(c1)NC(SCCC(=O)O)=NS2(=O)=O |
| 1.09 | O=C(O)CSC1=NS(=O)(=O)c2cc(Cl)cc(Cl)c2N1 |
| 0.92 | O=C(O)CSC1=NS(=O)(=O)c2cc(Br)ccc2N1 |
| 1.96 | O=C(O)CCSC1=NS(=O)(=O)c2ccc(C(F)(F)F)cc2N1 |
| 1.5 | O=C(O)CCC1=NS(=O)(=O)c2cc(Cl)c(Cl)cc2N1 |
| 1.1 | O=C(O)CSC1=NS(=O)(=O)c2ccc(Cl)c(Cl)c2N1 |
| 1.35 | O=C(O)CCC1=NS(=O)(=O)c2cc(Br)cc(Br)c2N1 |
| 1.6 | O=C(O)CCSC1=NS(=O)(=O)c2ccc(Cl)cc2N1 |
| 0.33 | Cc1ccc2c(c1)NC(CCCC(=O)O)=NS2(=O)=O |
| 1.51 | O=C(O)CCCC1=NS(=O)(=O)c2cc(Br)cc(Br)c2N1 |
| 0.18 | O=C(O)CSC1=NS(=O)(=O)c2ccccc2N1 |
| 0.83 | O=C(O)CCCC1=NS(=O)(=O)c2cc(Cl)ccc2N1 |
| 1.8 | O=C(O)CCCC1=NS(=O)(=O)c2cc(Cl)c(Cl)cc2N1 |
| 0.18 | COc1ccc2c(c1)NC(CCC(=O)O)=NS2(=O)=O |
| 1.43 | O=C(O)CCSC1=NS(=O)(=O)c2cc(Cl)ccc2N1 |
| 0.12 | COc1ccc2c(c1)NC(CCCC(=O)O)=NS2(=O)=O |
| 1.16 | O=C(O)CSC1=NS(=O)(=O)c2cc(Br)cc(Br)c2N1 |

| logP | SMILES |
| --- | --- |
| 0.72 | O=C(O)CCC1=NS(=O)(=O)c2ccc(Cl)cc2N1 |
| 1.62 | O=C(O)CSC1=NS(=O)(=O)c2ccc(C(F)(F)F)cc2N1 |
| 1.16 | Cc1ccc2c(c1)NC(SCCC(=O)O)=NS2(=O)=O |
| 0.69 | O=C(O)CCC1=NS(=O)(=O)c2cc(Cl)ccc2N1 |
| 2.04 | O=C(O)CCSC1=NS(=O)(=O)c2cc(Br)cc(Br)c2N1 |
| 1.04 | O=C(O)CCC1=NS(=O)(=O)c2cc(Cl)cc(Cl)c2N1 |
| 0.93 | O=C(O)CCC1=NS(=O)(=O)c2cc(Br)ccc2N1 |
| -0.18 | O=C(O)CCC1=NS(=O)(=O)c2ccccc2N1 |
| 0.72 | O=C(O)CSC1=NS(=O)(=O)c2cc(Cl)ccc2N1 |
| 1.02 | O=C(O)CCCC1=NS(=O)(=O)c2cc(Br)ccc2N1 |
| 0.7 | Cc1ccc2c(c1)NC(SCC(=O)O)=NS2(=O)=O |
| 1.22 | O=C(O)CCCC1=NS(=O)(=O)c2cc(Cl)cc(Cl)c2N1 |
| 1.24 | O=C(O)CCCC1=NS(=O)(=O)c2ccc(C(F)(F)F)cc2N1 |
| 0.66 | O=C(O)CCSC1=NS(=O)(=O)c2ccccc2N1 |
| 0.82 | O=C(O)CSC1=NS(=O)(=O)c2ccc(Cl)cc2N1 |
| 1.77 | O=C(O)CCSC1=NS(=O)(=O)c2cc(Br)ccc2N1 |
| 0.37 | COc1ccc2c(c1)NC(SCC(=O)O)=NS2(=O)=O |
| 1.81 | O=C(O)CCSC1=NS(=O)(=O)c2cc(Cl)c(Cl)cc2N1 |
| 0.16 | Cc1ccc2c(c1)NC(CCC(=O)O)=NS2(=O)=O |
